Results reported in patent US7462614B2, “Imidazotriazine compounds” (Smithkline Beecham Corporation, priority 2003, dated 2008).

The compounds below were run against T1, truncated human PLK1 (kinase domain) (Homo sapiens, UniProt P53350) (assay: Assay for Inhibition of PLK1 (33P SPA enzyme activity)). Details: 1 μM ATP, 2 nM enzyme; read-out: Ave pIC50 PLK Enzyme Inhibition (converted).
T1 construct: made in house; host or cells: baculovirus-infected T. ni insect cells
Assay type: biochemical
Method: I. Assay for Inhibition of PLK1
A. Preparation of 6× N-Terminal His-Tagged PLK Kinase Domain
All procedures are performed at 4° C. Cells are lysed in 25 mM HEPES, 200 mM NaCl, 25 mM imidazole; pH 8.0. The homogenate is centrifuged at 14K rpm in a SLA-1500 rotor for 40 min and the supernatant filtered through a 1.2 micron filter. The supernatant is loaded onto a Nickel chelating Sepharose (Amersham Pharmacia) column and washed with 25 mM HEPES, 500 mM NaCl, 25 mM imidazole; pH 8.0. […] PLK is concentrated using a 10 kDa molecular weight cutoff membrane and then loaded onto a Superdex 75 gel filtration (Amersham BioSciences) column equilibrated in 25 mM HEPES, 1 mM DTT, 500 mM NaCl; pH 8.0. Fractions containing PLK are determined by SDS-PAGE. PLK is pooled, aliquoted and stored at […]. Samples are quality controlled using mass spectrometry.
B. Enzyme Activity±Inhibitors is Determined As Follows:
Compounds are added to the plate (1 μL in 100% DMSO).
Immediately upon addition of enzyme and thorough mixing, add 20 uL per well into 384-well white plates containing compounds and controls. […] The enzymatic reaction is stopped with 50 μl of bead mix (50 mM EDTA, 2 mg/ml Streptavidin-coated SPA beads in Standard Dulbecco's PBS (without Mg^2+and Ca^2+), and 60 μM ATP).

T1 sequence (P53350 21-346): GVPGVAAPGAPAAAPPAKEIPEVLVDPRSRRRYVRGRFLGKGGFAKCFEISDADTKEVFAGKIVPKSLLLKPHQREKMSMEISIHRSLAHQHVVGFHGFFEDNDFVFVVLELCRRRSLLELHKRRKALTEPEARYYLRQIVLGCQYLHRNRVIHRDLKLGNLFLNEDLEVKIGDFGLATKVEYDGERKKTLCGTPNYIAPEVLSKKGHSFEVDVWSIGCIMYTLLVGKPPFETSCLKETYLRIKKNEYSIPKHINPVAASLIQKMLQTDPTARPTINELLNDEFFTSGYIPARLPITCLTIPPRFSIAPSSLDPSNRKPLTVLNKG

IC50	SMILES
0.1 to 10 µM	COc1cc(Nc2ncc3c(C)nc(-c4ccccc4[N+](=O)[O-])n3n2)cc(OC)c1OC [Example 2, 5-Methyl-7-(2-nitrophenyl)-N-(3,4,5-trimethoxyvhenyl)imidazo[5,1-f][1,2,4]triazin-2-amine]
0.1 to 10 µM	COc1cc(Nc2ncc3c(C)nc(-c4ccccc4Br)n3n2)cc(OC)c1OC [Example 3]
< 0.1 µM	COc1cc(Nc2ncc3c(C)nc(-c4ccc(F)cc4)n3n2)cc(OC)c1OC [Example 4, 7-(4-Fluorophenyl)-5-methyl-N-(3,4,5-trimethoxyphenyl)imidazo-[5,1-f][1,2,4]triazin-2-amine]
> 10 µM	COc1cc(Nc2ncc3c(C)nc(-c4ccccc4NC(=O)C(C)(C)C)n3n2)cc(OC)c1OC [Example 6, 2,2-Dimethyl-N-(2-{5-methyl-2-[(3,4,5-trimethoxyphenyl)amino]-imidazo[5,1-f][1,2,4]triazin-7-yl}phenyl)propanamide]
0.1 to 10 µM	COc1cc(Nc2ncc3c(C)nc(-c4ccccc4NC(=O)C(F)(F)F)n3n2)cc(OC)c1OC [Example 7, 2,2,2-Trifluoro-N-(2-{5-methyl-2-[(3,4,5-trimethoxyphenyl)amino]-imidazo[5,1-f][1,2,4]triazin-7-yl}phenyl)acetamide]
0.1 to 10 µM	COc1cc(Nc2ncc3c(C)nc(-c4sccc4Br)n3n2)cc(OC)c1OC [Example 10, 7-(3-Bromothien-2-yl)-5-methyl-N-(3,4,5-trimethoxyphenyl)-imidazo[1,5-f][1,2,4]triazin-2-amine]
0.1 to 10 µM	COc1cc(Nc2ncc3c(C)nc(-c4cncc(Br)c4)n3n2)cc(OC)c1OC [Example 11, 7-(5-Bromopyridin-3-yl)-5-methyl-N-(3,4,5-trimethoxyphenyl)-imidazo[5.1-f][1,2,4]triazin-2-amine]
0.1 to 10 µM	COC(=O)c1cccc(-c2nc(C)c3cnc(Nc4cc(OC)c(OC)c(OC)c4)nn23)c1 [Example 12, Methyl 3-{5-methyl-2-[(3,4,5-trimethoxyphenyl)amino]imidazo[5,1-f][1,2,4]triazin-7-yl}benzoate]
0.1 to 10 µM	COc1cc(Nc2ncc3c(C)nc(-c4ccc(Br)s4)n3n2)cc(OC)c1OC [Example 13, 7-(5-Bromothien-2-yl)-5-methyl-N-(3,4,5-trimethoxyphenyl)imidazo-[5,1-f][1,2,4]triazin-2-amine]
0.1 to 10 µM	CCS(=O)(=O)c1ccc(OC)c(Nc2ncc3c(C)nc(-c4cccc(Br)c4)n3n2)c1 [Example 14, 7-(3-Bromophenyl)-N-[5-(ethylsulfonyl)-2-methoxyphenyl]-5-methylimidazo[5,1-f][1,2,4]triazin-2-amine]
0.1 to 10 µM	Cc1nc(-c2cccc(Br)c2)n2nc(Nc3ccc(N4CCOCC4)c(Cl)c3)ncc12 [Example 15, 7-(3-Bromophenyl)-N-(3-chloro-4-morpholin-4-ylphenyl)-5-methylimidazo[5,1-f][1,2,4]triazin-2-amine]
< 0.1 µM	COc1cc(Nc2ncc3c(C)nc(-c4cccc(/C=C/C(N)=O)c4)n3n2)cc(OC)c1OC [Example 17, (2E)-3-(3-{5-Methyl-2-[(3,4,5-trimethoxyphenyl)amino]imidazo[5,1-f][1 2,4]triazin-7-yl}phenyl)prop-2-enamide]
0.1 to 10 µM	Cc1nc(-c2ccccc2)n2nc(Nc3ccc([N+](=O)[O-])cc3)ncc12 [Example 18, 5-Methyl-N-(4-nitrophenyl)-7-phenylimidazo[5,1-f][1,2,4]triazin-2-amine]
0.1 to 10 µM	Cc1nc(-c2ccccc2)n2nc(Nc3ccc(S(N)(=O)=O)cc3)ncc12 [Example 20, 4-[(5-Methyl-7-phenylimidazo[5,1-f][1,2,4]triazin-2-yl)amino]benzenesulfonamide]
0.1 to 10 µM	COc1ccccc1-c1nc(C)c2cnc(Nc3cc(OC)c(OC)c(OC)c3)nn12 [Example 21, 7-(2-Methoxyphenyl)-5-methyl-N-(3,4,5-trimethoxyphenyl)-imidazo[5,1-f][1,2,4]triazin-2-amine]
0.1 to 10 µM	Cc1nc(-c2ccccc2)n2nc(Nc3cccc(C(F)(F)F)c3)ncc12 [Example 26, 5-Methyl-7-phenyl-N-[3-(trifluoromethyl)phenyl]imidazo[5,1-f][1,2,4]triazin-2-amine]
0.1 to 10 µM	COc1cc(Nc2ncc3c(C)nc(-c4ccc5c(c4)OCO5)n3n2)cc(OC)c1OC [Example 28, 7-(1,3-Benzodioxol-5-yl)-5-methyl-N-(3,4,5-trimethoxyphenyl)-imidazo[5,1-f][1,2,4]triazin-2-amine]

IC50	SMILES
0.1 to 10 µM	COC(=O)c1ccc(-c2nc(C)c3cnc(Nc4cc(OC)c(OC)c(OC)c4)nn23)cc1 [Example 29, Methyl 4-{5-methyl-2-[(3,4,5-trimethoxyphenyl)amino]imidazo-[5,1-f][1,2,4]triazin-7-yl}benzoate]
< 0.1 µM	COc1cc(Nc2ncc3c(C)nc(-c4cccc(N)c4)n3n2)cc(OC)c1OC [Example 31, 7-(3-Aminophenyl)-5-methyl-N-(3,4,5-trimethoxyphenyl)imidazo-[5,1-f][1,2,4]triazin-2-amine]
0.1 to 10 µM	COc1cc(Nc2ncc3c(C)nc(-c4cc5ccccc5[nH]4)n3n2)cc(OC)c1OC [Example 32, 7-(1H-Indol-2-yl)-5-methyl-N-(3,4,5-trimethoxyphenyl)imidazo-[5,1-f][1,2,4]triazin-2-amine]
0.1 to 10 µM	COc1cc(Nc2ncc3c(C)nc(-c4ccc([N+](=O)[O-])[nH]4)n3n2)cc(OC)c1OC [Example 33, 5-Methyl-7-(5-nitro-1H-pyrrol-2-yl)-N-(3,4,5-trimethoxyphenyl)-imidazo[5,1-f][1,2,4]triazin-2-amine]
0.1 to 10 µM	COc1cc(Nc2ncc3c(C)nc(-c4cccn4C)n3n2)cc(OC)c1OC [Example 34, 5-Methyl-7-(1-methyl-1H-pyrrol-2-yl)-N-(3,4,5-trimethoxyphenyl)-imidazo[5,1-f][1,2,4]triazin-2-amine]
0.1 to 10 µM	COc1cc(Nc2ncc3c(C)nc(-c4cn(C)c5ccccc45)n3n2)cc(OC)c1OC [Example 35, 5-Methyl-7-(1-methyl-1H-indol-3-yl)-N-(3,4,5-trimethoxyphenyl)-imidazo[5,1-f][1,2,4]triazin-2-amine]
0.1 to 10 µM	COc1cc(Nc2ncc3c(C)nc(-c4ccoc4)n3n2)cc(OC)c1OC [Example 36, 7-(3-Furyl)-5-methyl-N-(3,4,5-trimethoxyphenyl)imidazo[5,1-f][1,2,4]triazin-2-amine]
0.1 to 10 µM	COc1cc(Nc2ncc3c(C)nc(-c4ccc5[nH]ccc5c4)n3n2)cc(OC)c1OC [Example 37, 7-(1H-Indol-5-yl)-5-methyl-N-(3,4,5-trimethoxyphenyl)imidazo-[5,1-f][1,2,4]triazin-2-amine]
0.1 to 10 µM	COc1cc(Nc2ncc3c(C)nc(-c4ccccc4Sc4ccccc4C#N)n3n2)cc(OC)c1OC [Example 38, 2-[(2-{5-Methyl-2-[(3,4,5-trimethoxyphenyl)amino]imidazo[5,1-f][1,2,4]triazin-7-yl}phenyl)thio]benzonitrile]
> 10 µM	COc1cc(Nc2ncc3c(C)nc(-c4ccccc4Nc4cccc(C(F)(F)F)c4)n3n2)cc(OC)c1OC [Example 39, 5-Methyl-7-(2-{[3-(trifluoromethyl)phenyl]amino}phenyl)-N-(3,4,5-trimethoxyphenyl)imidazo[5,1-f][1,2,4]triazin-2-amine]
> 10 µM	COc1cc(Nc2ncc3c(C)nc(-c4cccc5cccnc45)n3n2)cc(OC)c1OC [Example 40, 5-Methyl-7-quinolin-8-yl-N-(3,4 5-trimethoxyphenyl)imidazo[5,1-f][1,2,4]triazin-2-amine]
0.1 to 10 µM	Cc1nc(-c2cccc(C(F)(F)F)c2)n2nc(Nc3ccc(S(N)(=O)=O)cc3)ncc12 [Example 45, 4-({5-Methyl-7-[3-(trifluoromethyl)phenyl]imidazo[5,1-f][1,2,4]triazin-2-yl}amino)benzenesulfonamide]
< 0.1 µM	Cc1nc(-c2cccc(C(F)(F)F)c2)n2nc(Nc3ccc(O)cc3)ncc12 [Example 49, 4-({5-Methyl-7-[3-(trifluoromethyl)phenyl]imidazo[5,1-f][1,2,4]triazin-2-yl}amino)phenol]
0.1 to 10 µM	Cc1nc(-c2cccc(C(F)(F)F)c2)n2nc(Nc3ccc(OCCN4CCCC4)cc3)ncc12 [Example 50, 5-Methyl-N-[4-(2-pyrrolidin-1-ylethoxy)phenyl]-7-[3-(trifluoromethyl)phenyl]imidazo[5,1-f][1,2,4]triazin-2-amine]
0.1 to 10 µM	COc1ccc(F)cc1Nc1ncc2c(C)nc(-c3cccc(C(F)(F)F)c3)n2n1 [Example 51, N-(5-Fluoro-2-methoxyphenyl)-5-methyl-7-[3-(trifluoromethyl)phenyl]-imidazo[5,1-f][1,2,4]triazin-2-amine]
< 0.1 µM	COc1ccc(CCNC(C)=O)cc1Nc1ncc2c(C)nc(-c3cccc(C(F)(F)F)c3)n2n1 [Example 52, N-{2-[4-Methoxy-3-({5-methyl-7-[3-(trifluoromethyl)phenyl]-imidazo[5,1-f][1,2,4]triazin-2-yl}amino)phenyl]ethyl}acetamide]
< 0.1 µM	COc1ccc(CCN)cc1Nc1ncc2c(C)nc(-c3cccc(C(F)(F)F)c3)n2n1 [Example 53, N-[5-(2-Aminoethyl)-2-methoxyphenyl]-5-methyl-7-[3-(trifluoromethyl)phenyl]imidazo[5,1-f][1,2,4]triazin-2-amine]
